Data set [1] has as its system MDA-MB-453 breast cancer cells. Description: Flow cytometry-based cell permeability assay. The following applies: MDA-MB-453 cells, 10 μM, compared to Rhodamine only control. On the procedure: (§1) B. Competition FP experiment with 1907 showing inhibition of TAMRA-LD2 binding to FAT. C. SPR binding and selectivity analysis using WT FAT and Mutant FAT (L994E, 1936A) at the helix-protein interface. D. Flow cytometry analysis of Rhodamine-1907 (10 μM) cellular uptake in MDA-MB-453 breast cancer cells. E. Boyden-chamber invasion assays in SK-MEL-103 melanoma cells. F. 3D Matrigel-on-top proliferation assays in SK-MEL-103 melanoma cells.
(§2) To further evaluate the activity of 1907, experiments were conducted that tested the peptide in a flow cytometry-based cell permeability assay. […] Experiments were also conducted to test the cellular efficacy in SK-MEL-103 melanoma cells.
Flow cytometry assays performed on the Canto II flow cytometer (BD Biosciences) were utilized to measure cellular uptake of TAMRA-tagged peptides. In brief, the instrument was properly gated using cells treated with TAMRA-only as a positive control. Also, cells treated with untagged peptide were used as a negative control to rule out non-specific signal. Cells were treated with TAMRA-tagged peptides for a duration of 2 h-48 h to measure cellular uptake. Permeability of peptide was reported as % positivity relative to TAMRA positive control and mean fluorescence intensity (MFI).
On the technique in general: A flow cytometer gives signals particle by particle.

In data set [2] the test system is SK-MEL-103 melanoma cells. The data set is described as follows: 3D Matrigel-on-top proliferation assay. In kind it is cell-based. The following applies: for IC50: SK-MEL-103 melanoma cells, 3D Matrigel-on-top. On the procedure: as §1
(§3) B. 3D structure of negative control molecule (UACC-2020). C. 3D Matrigel-on-top cell proliferation data of stapled peptides in SK-MEL-103 melanoma cells.
(§4) A negative control myristoylated peptide (2020) was designed and synthesized based on non-active molecule 2014. Experiments were conducted to test the efficacy of these peptides in 3D proliferation assays using SK-MEL-103 melanoma cells. […] Furthermore, 2012 had no effects on the proliferation of normal HUVEC cells (IC50=NA) (FIG. 7).

Another data set addresses T1, trypsin (Bos taurus, UniProt P00760).
T1 construct: purchased ThermoFisher
T1 sequence (P00760 24-246): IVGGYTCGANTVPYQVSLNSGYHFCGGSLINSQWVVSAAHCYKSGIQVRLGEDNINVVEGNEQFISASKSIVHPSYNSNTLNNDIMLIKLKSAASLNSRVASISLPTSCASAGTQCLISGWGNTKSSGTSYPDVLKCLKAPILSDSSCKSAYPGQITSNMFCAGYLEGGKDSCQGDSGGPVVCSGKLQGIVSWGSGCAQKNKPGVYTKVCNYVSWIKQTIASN
The data set is described as follows: In vitro trypsin digest assay (trypsin-agarose beads, LC-MS). In kind it is in vitro ADME. Conditions: trypsin-agarose beads in physiological buffer, read-out: t1/2 in trypsin digest (protease resistance) (converted). On the procedure:
Assays were performed using trypsin-agarose beads (ThermoFisher) and measurement of peptide concentration using LC-MS. Peptide half-lives were calculated using GraphPad Prism software.
Trypsin-agarose beads were used to test the potential cleavage of peptides in a physiological buffer and LC-MS was used as the analytical method to determine peptide concentration.

Data set [3] concerns SK-MEL-103 melanoma cells. Description: Boyden-chamber invasion assay. Conditions: SK-MEL-103, compared to Defactinib relative to compound KD. In kind it is cell-based. How it is done: as §1, §2
The target in data set [4] is T2, FAK FAT domain (biotinylated Avitag-FAT protein) (Homo sapiens, UniProt Q05397).
T2 construct: biotinylated Avitag-FAT protein was diluted in running buffer
T2 sequence (Q05397 914-1045 limits assumed): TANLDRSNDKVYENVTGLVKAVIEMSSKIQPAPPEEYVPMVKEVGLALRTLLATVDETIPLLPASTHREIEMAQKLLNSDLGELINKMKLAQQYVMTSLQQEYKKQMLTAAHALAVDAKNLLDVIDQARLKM
The data set is described as follows: Surface plasmon resonance (SPR) binding to immobilised FAT protein. Conditions: FAT protein immobilised, peptide 200 μM-0.01 μM, 1:1 binding model; read-out: SPR KD.

In the next data set the test system is HUVEC cells. Description: 3D Matrigel-on-top proliferation assay in normal cells. In kind it is cell-based. How it is done: as §3, §4
Data set [5] concerns LX2 human liver stellate cells. Description: Anti-fibrotic activity in TGF-β-induced stellate cells (Western blot, morphology). In kind it is cell-based. On the procedure: A. Western blot studies of LX2 cells treated with 2 ng/ml TGF-β for 17 h to induce pro-fibrotic phenotypes. […] Quantification of fibronectin results are shown in the lower panel. B. Morphological changes of LX2 cells after TGF-β and peptide treatment for 17 h. Images were captured using bright field microscopy.
Experiments were conducted to test the anti-fibrotic effects of stapled peptides targeting the FAK FAT domain (FIG. 13). TGF-β induction was performed in LX-2 human liver stellate cells to promote a pro-fibrotic phenotypic and differentiation to myofibroblast-like cells.
In general terms: In western blotting, separated proteins are transferred to a membrane and probed.

A word on the IC50: it is the concentration at which inhibition is half-maximal. Low values mean higher potency, high ones lower potency. Usually Kd stands for the equilibrium constant for the complex coming apart.

With `CCN(CC)c1ccc2c(-c3ccccc3C(=O)NCCC(=O)N[C@@H](CC(N)=O)C(=O)N[C@@H](CC(C)C)C(=O)N[C@]3(C)CCCCCCC=CCCC[C@@](C)(C(=O)N[C@@H](CCC(=O)O)C(=O)N[C@@H](CC(C)C)C(=O)N[C@@H](CC(N)=O)C(N)=O)NC(=O)[C@H](CC(C)C)NC(=O)[C@H](CC(C)C)NC(=O)[C@H](CCCNC(=N)N)NC(=O)[C@H](CC(=O)O)NC(=O)[C@H](CC(C)C)NC(=O)[C@H](CCC(=O)O)NC3=O)c3ccc(=[N+](CC)CC)cc-3oc2c1` [Peptide 2016, RhoB-1907], in data set [1], the “cellular uptake / crossing of the cell membrane” value is on record as “successfully crossed the cell membrane”.
Consider `CC(=O)N[C@@H](CC(N)=O)C(=O)N[C@@H](CC(C)C)C(=O)N[C@]1(C)CCCCCC/C=C/CCC[C@@](C)(C(=O)N[C@@H](CCC(=O)O)C(=O)N[C@@H](CC(C)C)C(=O)N[C@@H](CC(N)=O)C(N)=O)NC(=O)[C@H](CC(C)C)NC(=O)[C@H](CC(C)C)NC(=O)[C@H](CCCNC(=N)N)NC(=O)[C@H](CC(=O)O)NC(=O)[C@H](CC(C)C)NC(=O)[C@H](CCC(=O)O)NC1=O` [Peptide 1907, Ac-NLR8ELDRLLS5ELN-NH2], for which the “inhibition of 3D proliferation” value in data set [2] (SK-MEL-103, compared to Defactinib relative to compound KD) is listed as “effectively inhibited”. For the same compound, 60 µM corresponded to half-maximal inhibition in data set [2] (IC50). Moreover, the half-life at trypsin is 15.7 h. Moreover, the inhibition of invasion result in data set [3] is “effectively inhibited”.
`CCCCCCCCCCCCCC(=O)N[C@@H](CC(N)=O)C(=O)N[C@@H](CC(C)C)C(=O)N[C@]1(C)CCCCCCC=CCCC[C@@](C)(C(=O)N[C@@H](CCC(=O)O)C(=O)N[C@@H](CC(C)C)C(=O)N[C@@H](CC(N)=O)C(N)=O)NC(=O)[C@H](CC(C)C)NC(=O)[C@H](CC(C)C)NC(=O)[C@H](CCCNC(=N)N)NC(=O)[C@H](CC(=O)O)NC(=O)[C@H](CC(C)C)NC(=O)[C@H](CCC(=O)O)NC1=O` [Peptide 2012, Myristoyl-NLR8ELDRLLS5ELN-NH2]: the Kd in data set [4] is greater than 200 µM. The midpoint of inhibition in data set [2], the IC50, lay at 5.5 µM. In addition, in the data set on HUVEC cells, the “3D proliferation IC50” value is “no effects”. Also, the half-life at trypsin was greater than 48 h. Further, the “TGF-β-induced expression of fibronectin” value in data set [5] (LX2 cells, 2 ng/ml TGF-β 17 h, peptide 10, 5, 2 μM pretreated 1 h) is given as “reduced the TGF-β-induced expression of fibronectin, a marker of fibrosis, in a dose-dependent manner”. Further, the “morphological change of TGF-β-induced cells” value in data set [5] (LX-2 cells, TGF-β and peptide treatment 17 h, bright field microscopy) is reported as “induced a morphological change”.
